Results on 49 compounds are retold here after ChEMBL document CHEMBL5143531, “Towards multi-target antidiabetic agents: In vitro and in vivo evaluation of 3,5-disubstituted indolin-2-one derivatives as novel α-glucosidase inhibitors” (Bioorg Med Chem Lett, 2022).

Structures are written as SMILES.

In general, inhibition refers to the change of the read-out against control, counted positive when it falls. Usually IC50 stands for the concentration at which inhibition is half-maximal. Low values mean greater potency, high ones weaker potency. The inhibition in vivo is the share of the control response that was lost under treatment.

Assay [1] deals with Saccharomyces cerevisiae. The experiment in a line: Inhibition of yeast alpha-glucosidase at 100 uM.
The nature of assay [2]: Inhibition of yeast alpha-glucosidase using p-nitrophenyl glycoside as substrate preincubated with enzyme for 15 mins followed by substrate addition for 30 mins. Also on record: species or system Saccharomyces cerevisiae.
Assay [3] in a line: Inhibition of yeast alpha-glucosidase. Also on record: species or system Saccharomyces cerevisiae.
Assay [4] has as its target Glycogen synthase kinase-3 beta (Homo sapiens, UniProt P49841).
Assay [5] can be described thus: Inhibition of yeast alpha-glucosidase using p-nitrophenyl glycoside as substrate preincubated with enzyme for 30 mins followed by substrate addition for 60 mins by spectrophotometric analysis. On the set-up: species or system Saccharomyces cerevisiae.
The test system of assay [6] is Rattus norvegicus. The experiment in a line: Anti-hyperglycemic activity in Wistar rat assessed as reduction in plasma glucose AUC (0 to 120 mins) at 5 mg/kg, po followed by maltose load by oral maltose tolerance test. It is filed as functional.
The subject of assay [7] is Rattus norvegicus. The experiment in a line: Anti-hyperglycemic activity in Wistar rat assessed as reduction in plasma glucose AUC (0 to 120 mins) at 5 mg/kg, po followed by sucrose load by oral sucrose tolerance test. It is filed as functional.
For assay [8], the system named is Rattus norvegicus. The experiment in a line: Anti-hyperglycemic activity in Wistar rat assessed as reduction in plasma glucose AUC (0 to 120 mins) at 5 mg/kg, po followed by glucose load by oral glucose tolerance test. It is filed as functional.
Assay [9] deals with Saccharomyces cerevisiae. The experiment in a line: Potency index, ratio of acarbose IC50 to test compound IC50 for inhibition of yeast alpha-glucosidase.
Assay [10] concerns Rattus norvegicus. Kind of assay: Anti-hyperglycemic activity in Wistar rat assessed as reduction in plasma glucose AUC (0 to 120 mins) at 10 mg/kg, po followed by sucrose load by oral sucrose tolerance test. The format is functional.
Assay [11] relates to Rattus norvegicus. The experiment in a line: Anti-hyperglycemic activity in Wistar rat assessed as reduction in plasma glucose AUC (0 to 120 mins) at 10 mg/kg, po followed by glucose load by oral glucose tolerance test. It is filed as functional.

Chain of Glycogen synthase kinase-3 beta (P49841 whole entry): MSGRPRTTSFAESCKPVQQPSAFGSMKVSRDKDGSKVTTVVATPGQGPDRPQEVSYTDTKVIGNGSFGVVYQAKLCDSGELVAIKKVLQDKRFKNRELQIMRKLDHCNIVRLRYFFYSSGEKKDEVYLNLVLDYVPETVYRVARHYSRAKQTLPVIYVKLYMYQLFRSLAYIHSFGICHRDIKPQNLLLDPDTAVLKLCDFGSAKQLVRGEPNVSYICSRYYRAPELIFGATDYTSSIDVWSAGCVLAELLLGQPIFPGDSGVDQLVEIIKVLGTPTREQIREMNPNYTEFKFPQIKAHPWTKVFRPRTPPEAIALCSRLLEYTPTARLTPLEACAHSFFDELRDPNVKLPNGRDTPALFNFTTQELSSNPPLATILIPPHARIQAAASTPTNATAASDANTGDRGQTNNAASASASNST

For the compound `O=C1Nc2ccc(Br)cc2C1=Cc1ccccn1`, the inhibition in the assay with Saccharomyces cerevisiae [1] is -1.49%.
Still for that read-out and setting: as for `CN1C(=O)C(=Cc2ccc(O)cc2)c2ccccc21` (mixture of isomers), the figure is 33.2%; as for `Cc1n[nH]c(C)c1C=C1C(=O)Nc2ccccc21` (mixture of isomers), 12.6%.
Still for that read-out and setting: the result for `O=C1Nc2ccccc2C1=Cc1cccnc1` (mixture of isomers) reads 2.08%.
In the case of `O=C(N/N=C/c1cc(O)c(O)c(O)c1)c1cc2ccccc2[nH]1`, in assay [2], the IC50 came out at 2.3 µM.
`CCC(=O)Nc1cc(NC(=O)CC)c2c(c1)C(CC#N)(OC(=O)CC)C(=O)N2` (stereo unspecified): the inhibition with Saccharomyces cerevisiae [1] worked out at 14.4%.
As to `COc1ccc2c(c1)C(O)(CC(=O)c1ccc(C)cc1)C(=O)N2` (stereo unspecified), the inhibition in the assay on Saccharomyces cerevisiae [1] was 65.4%. Further, in assay [3], half-maximal inhibition (IC50) was put at 60 µM.
For `O=C1Nc2ccc(NC(=O)c3ccccc3)cc2C1=Cc1ccc([N+](=O)[O-])cc1` (mixture of isomers), in that order: 104% and 56.6 µM.
With `O=C1Nc2ccccc2C1=Cc1ccccn1`, the inhibition with Saccharomyces cerevisiae [1] was -10%.
For `COC(=O)Nc1ccc2c(c1)C(=Cc1ccc(Br)cc1)C(=O)N2` (mixture of isomers), the inhibition with Saccharomyces cerevisiae [1] stood at 81.7%. This compound registered an IC50 in [3] of 68.9 µM.
On to `O=C1Nc2ccccc2C12CC2c1ccccn1` (stereo unspecified), for which the inhibition with Saccharomyces cerevisiae [1] stood at 12.1%.
Same read-out and setting: the result for `CC(=O)Nc1ccc2c(c1)C(=Cc1cccc(O)c1)C(=O)N2` (single isomer, unassigned; isomer 1) reads 14.9%; that for `COc1ccc(C(=O)CC2(O)C(=O)Nc3ccc(Br)cc32)cc1` (stereo unspecified), -3.83%.
Regarding `O=C1Nc2ccc(NC(=O)c3ccccc3)cc2C1=Cc1ccc(O)cc1` (mixture of isomers), the inhibition in the assay with Saccharomyces cerevisiae [1] was 92.3%. The IC50 was 136 µM in assay [3] and 4.34 µM in assay [4].
As for `O=C1Nc2ccccc2C1=CC(=O)c1ccco1` (mixture of isomers), the inhibition in the assay with Saccharomyces cerevisiae [1] came to 37.5%.
Still for that read-out and setting: the result for `COc1ccc2c(c1)C(=CC#N)C(=O)N2Cc1ccccc1` (single isomer, unassigned; isomer 1) reads 15.5%.
Same read-out and setting: the result for `O=C1Nc2ccc([N+](=O)[O-])cc2C1=Cc1cccnc1` reads -7.99%; that for `O=C1Nc2ccc(NC(=O)c3ccco3)cc2C1=Cc1ccc(O)cc1` (mixture of isomers), 57.9%.
Still for that read-out and setting: as for `O=C1Nc2ccccc2C1=Cc1ccncc1` (mixture of isomers), the figure is -3.17%; as for `CN1C(=O)C(=Cc2ccccn2)c2ccccc21`, 19.9%.
As for `O=C1Nc2ccc([N+](=O)[O-])cc2C1=Cc1cn[nH]c1C(=O)O` (mixture of isomers), the inhibition with Saccharomyces cerevisiae [1] is 33.6%.
Still for that read-out and setting: the result for `Cc1[nH]ncc1C=C1C(=O)Nc2ccccc21` (mixture of isomers) reads 40.8%.
Still for that read-out and setting: the result for `Cn1cc(C=C2C(=O)Nc3ccccc32)cn1` reads 34.5%; that for `O=C1Nc2ccc([N+](=O)[O-])cc2C1=CC(=O)c1ccco1` (single isomer, unassigned; isomer 1), 8.9%.
The same measure, in the same setting: the result for `CC(=O)Nc1ccc2c(c1)C(CC(=O)O)(OC(C)=O)C(=O)N2` (stereo unspecified) reads -5.09%.
As to `Nc1ccc(CC2C(=O)Nc3ccccc32)cc1` (stereo unspecified), the inhibition with Saccharomyces cerevisiae [1] is -3.64%.
With `COc1ccc2c(c1)C(=CC(=O)O)C(=O)N2` (mixture of isomers), the inhibition with Saccharomyces cerevisiae [1] was determined as 81.1%. The compound further displayed an IC50 in assay [3] of 26.4 µM.
On to `COc1cc(C=C2C(=O)Nc3ccc(NC(C)=O)cc32)cc(OC)c1OC`, for which the inhibition in the assay with Saccharomyces cerevisiae [1] was -9.74%.
Same read-out and setting: the result for `O=C1Nc2ccccc2C1=Cc1ccc(O)cc1` (single isomer, unassigned; isomer 1) reads 21.6%; that for `O=C1Nc2ccc([N+](=O)[O-])cc2C1=Cc1ccncc1` (mixture of isomers), -1.71%.
As for `COC(=O)Nc1ccc2c(c1)C(=Cc1ccc(O)cc1)C(=O)N2`, the inhibition in the assay with Saccharomyces cerevisiae [1] turned out to be 57.9%. This compound returned an IC50 in [3] of 76.7 µM.
On to `Cc1ccc(C(=O)CC2(O)C(=O)Nc3ccc(NC(=O)c4ccccc4)cc32)cc1` (stereo unspecified), for which the inhibition in the assay with Saccharomyces cerevisiae [1] worked out at 52.2%.
Still for that read-out and setting: as for `O=C1Nc2ccc(Br)cc2C1=Cc1cccnc1`, the figure is 10.7%; as for `O=C1Nc2ccc(Br)cc2C1=CC(=O)c1ccco1` (mixture of isomers), -3.81%; as for `O=C1Nc2ccccc2C1=Cc1cn[nH]c1C(=O)O` (mixture of isomers), 11.4%.
On the same count and under the same terms, the result for `COc1cc(C=C2C(=O)Nc3ccc(NC(=O)c4ccco4)cc32)cc(OC)c1OC` (single isomer, unassigned; isomer 1) reads 31.8%.
Still for that read-out and setting: as for `Cc1ccc(C(=O)CC2(O)C(=O)Nc3ccccc32)cc1` (stereo unspecified), the figure is -4.01%.
The compound `O=C(CSc1nnc2c(n1)[nH]c1ccccc12)c1cccc(O)c1` returned an IC50 in [5] of 2.5 µM.
With `O=C1Nc2ccccc2C1=Cc1cccs1` (mixture of isomers), in the assay on Saccharomyces cerevisiae [1], the inhibition was -1.25%.
For `O=C1Nc2ccccc2C1=Cc1ccc([N+](=O)[O-])cc1` (mixture of isomers), the inhibition in the assay with Saccharomyces cerevisiae [1] is 81.6%. This compound also returned an IC50 in assay [3] of 62.4 µM.
Consider `CN1C(=O)C2(CC2C#N)c2cc(Br)ccc21` (stereo unspecified), for which the inhibition with Saccharomyces cerevisiae [1] was determined as 61.2%.
For the compound `COC(=O)Nc1ccc2c(c1)C(=Cc1ccc([N+](=O)[O-])cc1)C(=O)N2` (mixture of isomers), the inhibition in the assay with Saccharomyces cerevisiae [1] came to 103%. In addition, in [3], 6.78 µM corresponded to half-maximal inhibition (IC50). Besides, the inhibition in vivo at 5 mg/kg stood at 42.1% with Rattus norvegicus [6], 28.8% in the assay on Rattus norvegicus [7] and 12.3% in the assay with Rattus norvegicus [8]. For the same compound, the Ratio IC50 with Saccharomyces cerevisiae [9] stood at 80.
In the case of `N#CCC1(O)C(=O)Nc2ccc(NC(=O)c3ccccc3)cc21` (stereo unspecified), the inhibition in the assay on Saccharomyces cerevisiae [1] worked out at 29.2%.
The same measure, in the same setting: the result for `COc1cc(NC(C)=O)c2c(c1)C(CC#N)(OC(C)=O)C(=O)N2` (stereo unspecified) reads 4.75%; that for `Cc1ccc(C(=O)CC2(O)C(=O)Nc3ccc(Br)cc32)cc1` (stereo unspecified), -3.94%.
As to `N#C[C@@H]1CCCN1C(=O)CNC12CC3CC(CC(O)(C3)C1)C2` [VILDAGLIPTIN], the inhibition in vivo at 10 mg/kg in the assay with Rattus norvegicus [10] was determined as 17.9%; in the assay with Rattus norvegicus [11], 28.6%.
For `C[C@H]1O[C@H](O[C@H]2[C@H](O)[C@@H](O)[C@@H](O[C@H]3[C@H](O)[C@@H](O)C(O)O[C@@H]3CO)O[C@@H]2CO)[C@H](O)[C@@H](O)[C@@H]1N[C@H]1C=C(CO)[C@@H](O)[C@H](O)[C@H]1O` (stereo partly specified) [ACARBOSE], the inhibition with Saccharomyces cerevisiae [1] was found to be 46.6%. The compound also gave an IC50 in assay [3] of 436 µM. Moreover, in the assay with Rattus norvegicus [6], the inhibition in vivo at 5 mg/kg amounted to 37.2%.
Consider `O=C1Nc2ccc(Br)cc2C1=Cc1ccncc1` (mixture of isomers), for which the inhibition in the assay with Saccharomyces cerevisiae [1] is -0.73%.
Turning to `Cc1nn(-c2ccccc2)c(C)c1C=C1C(=O)Nc2ccccc21` (single isomer, unassigned), the inhibition in the assay on Saccharomyces cerevisiae [1] worked out at 75.5%. Besides, half-maximal inhibition in assay [3] (IC50) required 153 µM.
